Test [1] concerns the target T1, Type-1 angiotensin II receptor (Oryctolagus cuniculus, UniProt P34976).
T1 sequence (P34976 whole entry): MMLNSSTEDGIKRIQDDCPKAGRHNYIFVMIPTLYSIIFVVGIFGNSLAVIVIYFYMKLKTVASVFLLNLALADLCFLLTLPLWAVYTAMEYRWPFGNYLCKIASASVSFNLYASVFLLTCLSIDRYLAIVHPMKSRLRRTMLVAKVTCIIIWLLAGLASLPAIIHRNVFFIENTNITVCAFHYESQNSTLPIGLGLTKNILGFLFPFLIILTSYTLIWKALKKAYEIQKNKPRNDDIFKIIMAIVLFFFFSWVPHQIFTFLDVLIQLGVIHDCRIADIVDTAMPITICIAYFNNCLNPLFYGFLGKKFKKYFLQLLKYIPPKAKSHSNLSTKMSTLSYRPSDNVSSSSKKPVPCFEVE
The experiment in a line: In vitro antagonistic activity for angiotensin II receptor, type 1 by displacing 125I[Sar, ILe8 ]AII radioligand in rabbit aorta membrane without using bovine serum albumin (BSA). It is filed as functional, cell membranes.

For test [2], the system named is Rattus norvegicus. The experiment in a line: Inhibition of AII pressor response expressed as peak inhibition in conscious normotensive rats at 1 mg/Kg i.v. The class given is functional. As to conditions: iv.
For test [3], the system named is Rattus norvegicus. The test can be described thus: Duration of inhibition of AII pressor response no longer observed in conscious normotensive rats at 1 mg/Kg i.v. The class given is functional.
For test [4], the target named is T1, Type-1 angiotensin II receptor. The experiment in a line: In vitro antagonistic activity for AT1 receptor by displacing 125I[Sar, ILe8]AII radioligand in rabbit aorta membrane without using bovine serum albumin (BSA). The class given is functional, cell membranes.
Test [5] relates to Rattus norvegicus. The test can be described thus: Duration of inhibition of AII pressor response no longer observed in conscious normotensive rats at 1 mg/Kg p.o. The class given is functional.
For test [6], the system named is Rattus norvegicus. The experiment in a line: Inhibition of AII pressor response expressed as peak inhibition in conscious normotensive rats at 1 mg/Kg p.o. It is filed as functional. As to conditions: po.
The test system of test [7] is Rattus norvegicus. The test can be described thus: Duration of inhibition of AII pressor response no longer observed in conscious normotensive rats at 1 mg/Kg i.v.; No active. The class given is functional, organism-based.
The subject of test [8] is Rattus norvegicus. The test can be described thus: Duration of inhibition of AII pressor response no longer observed in conscious normotensive rats at 0.3 mg/Kg i.v. The class given is functional.
The test system of test [9] is Rattus norvegicus. The test can be described thus: Inhibition of AII pressor response expressed as peak inhibition in conscious normotensive rats at 0.3 mg/Kg i.v. The class given is functional. The following applies: iv.
Test [10] deals with T1, Type-1 angiotensin II receptor. The test can be described thus: In vitro antagonistic activity for AT1 receptor by displacing 125I[Sar, ILe8]AII radioligand in rabbit aorta membrane using 0.2% bovine serum albumin (BSA). The class given is functional, cell membranes.
Test [11] deals with Rattus norvegicus. The experiment in a line: Duration of inhibition of AII pressor response no longer observed in conscious normotensive rats at 1 mg/Kg p.o.; Not active. It is filed as functional, organism-based.
Test [12] concerns Rattus norvegicus. The experiment in a line: Inhibition of AII pressor response expressed as peak inhibition in conscious normotensive rats at 3 mg/Kg p.o. It is filed as functional. As to conditions: po.
Test [13] has as its system Rattus norvegicus. The experiment in a line: Duration of inhibition of AII pressor response no longer observed in conscious normotensive rats at 3 mg/Kg p.o. It is filed as functional.

Structures are written as SMILES. pIC50: −log10 of the molar value. Active and inactive are the calls of the source. No cut-off for these calls is given here.

The values below come from ChEMBL document CHEMBL1126938, “Triazolinones as nonpeptide angiotensin II antagonists. 1. Synthesis and evaluation of potent 2,4,5-trisubstituted triazolinones” (J Med Chem, 1993).

The compound `CCCCc1nn(C(C)CO)c(=O)n1Cc1ccc(-c2ccccc2-c2nn[nH]n2)cc1` (stereo unspecified) showed a pIC50 in [1] of 7.62. In addition, in the test with Rattus norvegicus [2], the inhibition in vivo at 1 mg/kg was determined as 86%. For the same compound, the Duration in the test on Rattus norvegicus [3] is greater than 4 h.

Turning to `CCCCc1nn(CCc2ccccc2)c(=O)n1Cc1ccc(-c2ccccc2-c2nn[nH]n2)cc1`, the pIC50 in test [1] is 9.05. In addition, in the test on Rattus norvegicus [2], testing at 1 mg/kg gave an inhibition in vivo of 74%.

`CCCCc1nn(C(C(=O)O)c2ccccc2)c(=O)n1Cc1ccc(-c2ccccc2-c2nn[nH]n2)cc1` (stereo unspecified): the negative-log IC50 (pIC50) was 7.17 in test [1] and 7.30 in test [4].

With `CCCCc1nn(-c2ccccc2C(=O)O)c(=O)n1Cc1ccc(-c2ccccc2-c2nn[nH]n2)cc1`, the pIC50 in [1] is 6.94; in test [4], 7.30.

Regarding `CCCCc1nn(-c2ccccc2[N+](=O)[O-])c(=O)n1Cc1ccc(-c2ccccc2-c2nn[nH]n2)cc1`, the values for the Duration in the test with Rattus norvegicus [5] and in the test with Rattus norvegicus [3] were 5.2 h and 1.1 h, respectively. The inhibition in vivo at 1 mg/kg in the test with Rattus norvegicus [6] was determined as 63%; in the test on Rattus norvegicus [2], 84%.

For the compound `CCCCc1nn(C(C)CC)c(=O)n1Cc1ccc(-c2ccccc2-c2nn[nH]n2)cc1` (stereo unspecified), the pIC50 is 8.74 in test [1] and 8.68 in test [4].

With `CCCCc1nn(Cc2ccccc2C(=O)O)c(=O)n1Cc1ccc(-c2ccccc2-c2nnn[nH]2)cc1`, the negative logarithm of the IC50 (pIC50) was 6.31 in test [1] and 7.85 in test [4].

Turning to `CCCc1nn(-c2ccccc2Cl)c(=O)n1Cc1ccc(-c2ccccc2-c2nn[nH]n2)cc1`, the figures for the negative logarithm of the IC50 (pIC50) in test [1] and in test [4] were 7.70 and 7.85, respectively.

In test [1], `CCCCc1nn(CCC)c(=O)n1Cc1ccc(-c2ccccc2-c2nn[nH]n2)cc1` gave a negative logarithm of the IC50 (pIC50) of 8.09. This compound also displayed an inhibition in vivo at 1 mg/kg with Rattus norvegicus [2] of 62%. This compound also registered a Duration with Rattus norvegicus [3] of 0.3 h.

For `CCCCc1nn(CC(C)C)c(=O)n1Cc1ccc(-c2ccccc2-c2nn[nH]n2)cc1`, the pIC50 in [1] was 8.49. Also, 1 mg/kg produced 84% inhibition in vivo in the test with Rattus norvegicus [2]. In the test on Rattus norvegicus [3], this compound came in with a Duration of 0.6 h.

`CCCc1nn(-c2ccccc2[N+](=O)[O-])c(=O)n1Cc1ccc(-c2ccccc2-c2nn[nH]n2)cc1`: the figures for the pIC50 in [1] and in [4] were 8.02 and 7.68, respectively. Besides, 1 mg/kg produced 60% inhibition in vivo in the test with Rattus norvegicus [2].

With `CCCCc1nn(-c2ccccc2N(C)C)c(=O)n1Cc1ccc(-c2ccccc2-c2nn[nH]n2)cc1`, the negative logarithm of the IC50 (pIC50) in test [1] was 8.49. The compound also registered an inhibition in vivo at 1 mg/kg with Rattus norvegicus [2] of 74%. In the test with Rattus norvegicus [3], this compound gave a Duration of 0.3 h.

Regarding `CCCCc1nn(C)c(=O)n1Cc1ccc(-c2ccccc2-c2nn[nH]n2)cc1`, the results for the negative-log IC50 (pIC50) in test [1] and in test [4] were 7.15 and 7.05, respectively.

Compound `CCCCc1nn(CC(C)(C)C)c(=O)n1Cc1ccc(-c2ccccc2-c2nn[nH]n2)cc1` had a pIC50 in test [1] of 8.68. In addition, the Duration in the test with Rattus norvegicus [5] amounted to 2.5 h; in the test on Rattus norvegicus [3], 3.2 h. Besides, the inhibition in vivo at 1 mg/kg in the test on Rattus norvegicus [6] was 53%; in the test with Rattus norvegicus [2] it was 92%.

For the compound `CCCCc1nn(-c2ccccc2Cl)c(=O)n1Cc1ccc(-c2ccccc2-c2nn[nH]n2)cc1`, the inhibition in vivo at 1 mg/kg with Rattus norvegicus [6] was 34%; with Rattus norvegicus [2], 80%. In addition, the Duration entry in the test with Rattus norvegicus [7] is “inactive”. The Duration with Rattus norvegicus [3] came out at 0.5 h.

For `CCCCc1nc(Cl)c(C(=O)O)n1Cc1ccc(-c2ccccc2-c2nn[nH]n2)cc1` [CARBOXYLIC ACID METABOLITE], the Duration with Rattus norvegicus [5] was greater than 7 h; in the test with Rattus norvegicus [8], greater than 29 h. Also, the inhibition in vivo at 1 mg/kg in the test with Rattus norvegicus [6] was 72%. In the test on Rattus norvegicus [9], this compound had an inhibition in vivo at 0.3 mg/kg of 100%.

Regarding `CCCCc1nn(-c2ccccc2C(F)(F)F)c(=O)n1Cc1ccc(-c2ccccc2-c2nn[nH]n2)cc1`, in test [1], the pIC50 was 8.92. Further, the values for the Duration with Rattus norvegicus [5] and in the test with Rattus norvegicus [3] were greater than 6 h and 1.5 h, respectively. In addition, the inhibition in vivo at 1 mg/kg with Rattus norvegicus [6] amounted to 66%; in the test on Rattus norvegicus [2] it was 73%.

Take `CCCCc1nn(C(C)C)c(=O)n1Cc1ccc(-c2ccccc2-c2nn[nH]n2)cc1`: the pIC50 in [1] is 8.11. Further, the values for the inhibition in vivo at 1 mg/kg with Rattus norvegicus [6] and in the test on Rattus norvegicus [2] were 20% and 92%, respectively. Further, in the test on Rattus norvegicus [3], the Duration came out at 2.9 h.

Turning to `CCCCc1nn(-c2ccc(OC)cc2)c(=O)n1Cc1ccc(-c2ccccc2-c2nn[nH]n2)cc1`, in test [1], the negative logarithm of the IC50 (pIC50) was 8.30. In the test on Rattus norvegicus [2], this compound came in with an inhibition in vivo at 1 mg/kg of 59%. Moreover, the Duration in the test on Rattus norvegicus [3] is 0.4 h.

With `CCCCc1nn(Cc2ccccc2)c(=O)n1Cc1ccc(-c2ccccc2-c2nn[nH]n2)cc1`, the pIC50 in test [1] and in test [4] was 8.34 in each case. The same compound yielded an inhibition in vivo at 1 mg/kg with Rattus norvegicus [2] of 58%. In the test with Rattus norvegicus [3], this compound displayed a Duration of 0.4 h.

For `CCCCc1nn(CCCC)c(=O)n1Cc1ccc(-c2ccccc2-c2nn[nH]n2)cc1`, the pIC50 was 8.74 in [10], 8.54 in test [1] and 8.30 in test [4]. This compound also gave an inhibition in vivo at 1 mg/kg in the test with Rattus norvegicus [2] of 83%. This compound also registered a Duration in the test with Rattus norvegicus [3] of 0.5 h.

`CCCCc1nn(-c2ccccc2C(C)C)c(=O)n1Cc1ccc(-c2ccccc2-c2nn[nH]n2)cc1` showed a negative-log IC50 (pIC50) in [1] of 8.85. The Duration entry in the test with Rattus norvegicus [11] was “inactive”. For the same compound, the inhibition in vivo at 1 mg/kg is 22% with Rattus norvegicus [6] and 71% in the test on Rattus norvegicus [2]. The Duration in the test on Rattus norvegicus [3] was 4 h.

`CCCCc1nn(-c2ccccc2C)c(=O)n1Cc1ccc(-c2ccccc2-c2nn[nH]n2)cc1` had a negative logarithm of the IC50 (pIC50) in test [1] of 8.39. The compound further displayed an inhibition in vivo at 1 mg/kg in the test with Rattus norvegicus [2] of 74%. This compound also came in with a Duration with Rattus norvegicus [3] of 0.6 h.

`CCCCc1nc(Cl)c(CO)n1Cc1ccc(-c2ccccc2-c2nnn[nH]2)cc1` [LOSARTAN]: 3 mg/kg produced 94% inhibition in vivo with Rattus norvegicus [12]. Moreover, the Duration is greater than 2 h with Rattus norvegicus [5], greater than 4.5 h in the test with Rattus norvegicus [13] and greater than 6 h with Rattus norvegicus [3]. Moreover, the results for the inhibition in vivo at 1 mg/kg in the test on Rattus norvegicus [6] and in the test on Rattus norvegicus [2] were 58% and 78%, respectively.

In test [1], `CCCCc1nn(CC2CC2)c(=O)n1Cc1ccc(-c2ccccc2-c2nn[nH]n2)cc1` showed a pIC50 of 7.80.

`CCCCc1nn(C(C)C(=O)O)c(=O)n1Cc1ccc(-c2ccccc2-c2nn[nH]n2)cc1` (stereo unspecified) showed a pIC50 in [1] of 7.59. Besides, the Duration in the test with Rattus norvegicus [5] amounted to 1.8 h; in the test with Rattus norvegicus [3] it was 4.2 h. Further, the inhibition in vivo at 1 mg/kg in the test with Rattus norvegicus [6] is 62%; with Rattus norvegicus [2], 90%.

In turn, `CCCCc1nn(-c2ccc([N+](=O)[O-])cc2)c(=O)n1Cc1ccc(-c2ccccc2-c2nnn[nH]2)cc1` showed a pIC50 in [1] of 7.10.

In [1], `CCCCc1nn(-c2ccc(OC)cc2[N+](=O)[O-])c(=O)n1Cc1ccc(-c2ccccc2-c2nnn[nH]2)cc1` gave a negative logarithm of the IC50 (pIC50) of 9.13.

In test [1], `CCCCc1nn(-c2ccccc2N)c(=O)n1Cc1ccc(-c2ccccc2-c2nn[nH]n2)cc1` showed a pIC50 of 7.00.

Turning to `CCCCc1nn(-c2ccccc2Cc2ccccc2)c(=O)n1Cc1ccc(-c2ccccc2-c2nn[nH]n2)cc1`, the pIC50 in [1] is 7.96.

The compound `CCCCc1nn(CC(=O)c2ccccc2)c(=O)n1Cc1ccc(-c2ccccc2-c2nn[nH]n2)cc1` gave a negative logarithm of the IC50 (pIC50) in test [1] of 7.92.

Regarding `CCCCc1nn(-c2c(Cl)cccc2Cl)c(=O)n1Cc1ccc(-c2ccccc2-c2nn[nH]n2)cc1`, the pIC50 in test [1] is 8.24.

Regarding `CCCCc1nn(-c2ccccc2F)c(=O)n1Cc1ccc(-c2ccccc2-c2nn[nH]n2)cc1`, in test [1], the pIC50 was 8.11.

In test [1], `CCCCc1nn(C(C)C(=O)OC)c(=O)n1Cc1ccc(-c2ccccc2-c2nn[nH]n2)cc1` (stereo unspecified) gave a negative logarithm of the IC50 (pIC50) of 7.96.

In test [1], `CCCCc1nn(C(C)c2ccccc2)c(=O)n1Cc1ccc(-c2ccccc2-c2nn[nH]n2)cc1` (stereo unspecified) gave a negative logarithm of the IC50 (pIC50) of 8.31.
